Assay results: US20230058954A1, “APREPITANT FOR USE IN THE TOPICAL TREATMENT OF FACIAL NEURALGIA” (ASSISTANCE PUBLIQUE - HOPITAUX DE PARIS, priority 2020, published 2023)

System: patients suffering from facial neuralgia
Test: Earlier treatments of the same patients (not relieved by)
Format: in vivo, human
[1] = Patient 3, post-zooster facial neuralgia

## CN(C)CCC=C1c2ccccc2CCc2ccccc21 [amitriptyline]
Patient 2, facial neuralgia
  relief of pain by earlier treatment: No relieved
[1]
  relief of pain by earlier treatment: No relieved

## CNCC[C@H](Oc1cccc2ccccc12)c1cccs1 [duloxetine]
Patient 2, facial neuralgia
  relief of pain by earlier treatment: No relieved

## NCC1(CC(=O)O)CCCCC1 [gabapentin]
Patient 2, facial neuralgia
  relief of pain by earlier treatment: No relieved

## CNC1(c2ccccc2Cl)CCCCC1=O (stereo not drawn) [ketamine]
Patient 1, trigeminal neuralgia
  relief of pain by earlier treatment: No relieved

## CCC(=O)C(CC(C)N(C)C)(c1ccccc1)c1ccccc1 (stereo not drawn) [methadone]
Patient 2, facial neuralgia
  relief of pain by earlier treatment: No relieved

## CC(C)C[C@H](CN)CC(=O)O [pregabalin]
Patient 2, facial neuralgia
  relief of pain by earlier treatment: No relieved
[1]
  relief of pain by earlier treatment: No relieved

## COc1cccc(C2(O)CCCCC2CN(C)C)c1 (stereo not drawn) [tramadol]
[1]
  relief of pain by earlier treatment: No relieved
